Assay results published in US20050054726A1, “Vaccine” (priority 2001, published 2005).

Columns and labels:
IL-4 producing cells = assay: ELISPOT of IL-4 (Th2) producing CD4+ T cells from lymph nodes; type: in vivo, mice; conditions: combination of 1400W with pVAC1.OVA vs pVAC1.OVA + vehicle; FIG. 2
Protocol: (§1) Twenty four hours later, minipumps containing 1400W (delivering 10 mg/kg per hour), or sterile water (controls), were implanted subcutaneously into mice under anaesthesia. Mice were then immediately immunised by PMID with two cartridges of either pVAC1.0VA or empty vector (1 μg plasmid DNA/mouse).
(§2) Five days later, mice were killed by cervical dislocation and inguinal and periaortic lymph nodes were collected and prepared as for splenocytes (described above), except that the red blood cell lysis step was omitted. To measure the in vivo clonal expansion of CD4+ T cells induced by immunisation, the proportion of ovalbumin-specific T cells was assessed ex vivo in the lymph node cell preparations. Briefly, an aliquot of lymph node cells from each individual mouse was processed for flow cytometry analysis (Coulter XL) using KJ1.26 (0.2 μg, Caltag) and anti-CD4 (0.5 μg, Sigma).
(§3) Th CD4+ subsets were assessed by ELISPOT analyses of CD4+ T cells producing IFN-γ (Th1) and IL-4 (Th2). Briefly, lymph node cell suspension was aliquoted into ELISPOT plates previously coated with capture IFN-γ or IL-4 antibody and stimulated with ovalbumin cognate peptide.

IFN-γ producing cells = assay: ELISPOT of IFN-γ (Th1) producing CD4+ T cells from lymph nodes; type: in vivo, mice; conditions: combination pVAC1.OVA + 1400W; FIG. 3
Protocol: as §1, §2, §3

CD8+ T cells = assay: CD8+ T cell-restricted IFN-γ / IL-2 ELISPOT assay of splenocytes after prime-boost PMID; type: in vivo, C57B1/6 mice
Protocol: Controls contained pVAC1 (0.5 μg plasmid DNA/cartridge) only.
Spleens were collected 12 days later for T cell assays.
The cytotoxic T cell response was assessed by CD8+ T cell-restricted IFN-γ ELISPOT assay of splenocytes. Mice were killed by cervical dislocation and spleens were collected into ice-cold PBS. […] After two washes in PBS to remove particulate matter the single cell suspension was aliquoted into ELISPOT plates previously coated with capture IFN-γ or IL-2 antibody and stimulated with CD8-restricted cognate peptide. After overnight culture, IFN-γ producing cells were visualised by application of anti-murine IFN-γ-biotin labelled antibody (Pharmingen) followed by streptavidin-conjugated alkaline phosphatase and quantitated using image analysis.

[1] = system: ovalbumin-specific CD4+ T cells; assay: In vivo clonal expansion of ovalbumin-specific CD4+ T cells after PMID immunisation (adoptive transfer model, flow cytometry KJ1+ CD4+); parameters: species or system mice
Protocol: as §1, §2

iNOS = iNOS (Homo sapiens, UniProt P35228); conditions: category per Alderton et al., Biochem J. (2001) 357, 593-615; cited from earlier work

## CC(=N)NCc1cccc(CN)c1 [1400W, N-[3-(aminomethyl)benzyl] acetamidine]
IL-4 producing cells
  number of IL-4 producing cells: no effect to a modest almost 2 fold increase
IFN-γ producing cells
  increase in number of IFN-γ producing cells: 2-4 times
CD8+ T cells; control plasmid (pVAC1) + 1400W vs vehicle
  number of IFN-γ- or IL-2-producing CD8+ T cells in the spleens: No differences
CD8+ T cells; pVAC1.OVAcyt + 1400W relative to pVAC1.OVAcyt + vehicle, 12 days after boost, FIG. 4
  number of IFN-γ- or IL-2-producing CD8+ T cells in the spleens: twice
[1]; empty vector + 1400W vs empty vector + vehicle
  clonal expansion of CD4+ T cells: No difference
[1]; pVAC1.OVA + 1400W (minipump, 10 mg/kg per hour) vs pVAC1.OVA + vehicle, lymph nodes, five days after PMID, Figure one
  clonal expansion of CD4+ T cells: substantial increase

## CC(=N)NCCCC[C@H](N)C(=O)O [L-NIL, reference compound]
iNOS
  selectivity category of iNOS inhibitor: partially selective (Inhibitors which have a 10-50-fold selectivity are regarded as partially selective inhibitors)

## CC(=N)NCCSCC[C@H](N)C(=O)O [GW274150, S-[2-(1-iminoethylamino)ethyl]-L-homocysteine]
iNOS
  selectivity category of iNOS inhibitor: highly selective (compounds of over 50-fold selectivity are regarded as highly selective)
